Tests used:
Assay in all cases: NCI 60 cell line screen
HCT-116 = assay type: cell-based, human; settings: HCT-116, Colon Cancer; single concentration 10^−5 M
Protocol: (§1) The cytotoxic activity of nortopsintin analogs (4a-4j) was determined by the national cancer institute (NCI, Bethesda, Maryland, USA) against 60 different cancer cell lines at a single concentration of (10^-5 M). For the determination of IC50 value, we used MTT assay kit (Sigma) according to the manufacturer's protocol. HCT-116 cells were seeded into a 96-well plate at a concentration of 20,000 cells/well. After 24 h, the media was aspirated and replaced with serum-free media containing serial dilutions of the 4i compound. […] The percentage of cytotoxicity was calculated using the following equation: % Cytotoxicity = [1 - ([…])] × 100.

786-0 = assay type: cell-based; settings: 786-0, Renal Cancer; single concentration 10^−5 M
Protocol: as §1

U251 = assay type: cell-based; settings: U251, CNS Cancer; single concentration 10^−5 M
Protocol: as §1

HT29 = assay type: cell-based; settings: HT29, Colon Cancer; single concentration 10^−5 M
Protocol: as §1

NCI-H322M = assay type: cell-based; settings: Non-Small Cell Lung Cancer, single concentration 10^−5 M
Protocol: as §1

NCI/ADR-RES = assay type: cell-based; settings: Ovarian Cancer, single concentration 10^−5 M
Protocol: as §1

OVCAR-8 = assay type: cell-based; settings: OVCAR-8, Ovarian Cancer; single concentration 10^−5 M
Protocol: as §1

SR = assay type: cell-based; settings: Leukemia, single concentration 10^−5 M
Protocol: as §1

NCI-H226 = assay type: cell-based; settings: NCI-H226, Non-Small Cell Lung Cancer; single concentration 10^−5 M
Protocol: as §1

SF-539 = assay type: cell-based; settings: SF-539, CNS Cancer; single concentration 10^−5 M
Protocol: as §1

T-47D = assay type: cell-based; settings: Breast Cancer, single concentration 10^−5 M
Protocol: as §1

A498 = assay type: cell-based; settings: A498, Renal Cancer; single concentration 10^−5 M
Protocol: as §1

DU-145 = assay type: cell-based; settings: DU-145, Prostate Cancer; single concentration 10^−5 M
Protocol: as §1

HOP-92 = assay type: cell-based; settings: HOP-92, Non-Small Cell Lung Cancer; single concentration 10^−5 M
Protocol: as §1

SNB-19 = assay type: cell-based; settings: SNB-19, CNS Cancer; single concentration 10^−5 M
Protocol: as §1

OVCAR-3 = assay type: cell-based; settings: OVCAR-3, Ovarian Cancer; single concentration 10^−5 M
Protocol: as §1

PC-3 = assay type: cell-based; settings: PC-3, Prostate Cancer; single concentration 10^−5 M
Protocol: as §1

HS 578T = assay type: cell-based; settings: Breast Cancer, single concentration 10^−5 M
Protocol: as §1

SW-620 = assay type: cell-based; settings: SW-620, Colon Cancer; single concentration 10^−5 M
Protocol: as §1

MDA-MB-231/ATCC = assay type: cell-based; settings: Breast Cancer, single concentration 10^−5 M
Protocol: as §1

RPMI-8226 = assay type: cell-based; settings: RPMI-8226, Leukemia; single concentration 10^−5 M
Protocol: as §1

OVCAR-4 = assay type: cell-based; settings: OVCAR-4, Ovarian Cancer; single concentration 10^−5 M
Protocol: as §1

UACC-62 = assay type: cell-based; settings: UACC-62, Melanoma; single concentration 10^−5 M
Protocol: as §1

A549/ATCC = assay type: cell-based; settings: Non-Small Cell Lung Cancer, single concentration 10^−5 M
Protocol: as §1

ACHN = assay type: cell-based; settings: Renal Cancer, single concentration 10^−5 M
Protocol: as §1

UACC-257 = assay type: cell-based; settings: UACC-257, Melanoma; single concentration 10^−5 M
Protocol: as §1

BT-549 = assay type: cell-based; settings: BT-549, Breast Cancer; single concentration 10^−5 M
Protocol: as §1

RXF 393 = assay type: cell-based; settings: RXF 393, Renal Cancer; single concentration 10^−5 M
Protocol: as §1

TK-10 = assay type: cell-based; settings: TK-10, Renal Cancer; single concentration 10^−5 M
Protocol: as §1

SK-MEL-5 = assay type: cell-based; settings: SK-MEL-5, Melanoma; single concentration 10^−5 M
Protocol: as §1

NCI-H23 = assay type: cell-based; settings: NCI-H23, Non-Small Cell Lung Cancer; single concentration 10^−5 M
Protocol: as §1

HCT-15 = assay type: cell-based; settings: HCT-15, Colon Cancer; single concentration 10^−5 M
Protocol: as §1

CAKI-1 = assay type: cell-based; settings: CAKI-1, Renal Cancer; single concentration 10^−5 M
Protocol: as §1

SK-MEL-2 = assay type: cell-based; settings: SK-MEL-2, Melanoma; single concentration 10^−5 M
Protocol: as §1

KM12 = assay type: cell-based; settings: KM12, Colon Cancer; single concentration 10^−5 M
Protocol: as §1

K-562 = assay type: cell-based; settings: K-562, Leukemia; single concentration 10^−5 M
Protocol: as §1

CCRF-CEM = assay type: cell-based; settings: Leukemia, single concentration 10^−5 M
Protocol: as §1

NCI-H460 = assay type: cell-based; settings: NCI-H460, Non-Small Cell Lung Cancer; single concentration 10^−5 M
Protocol: as §1

SMILES | Growth % (HCT-116) | Growth % (786-0) | Growth % (U251) | Growth % (HT29) | Growth % (NCI-H322M) | Growth % (NCI/ADR-RES) | Growth % (OVCAR-8) | Growth % (SR) | Growth % (NCI-H226) | Growth % (SF-539) | Growth % (T-47D) | Growth % (A498) | Growth % (DU-145) | Growth % (HOP-92) | Growth % (SNB-19) | Growth % (OVCAR-3) | Growth % (PC-3) | Growth % (HS 578T) | Growth % (SW-620) | Growth % (MDA-MB-231/ATCC) | also measured
N#Cc1c(-c2ccc(Cl)cc2)cc(-c2c[nH]c3ccccc23)nc1-c1c[nH]c2ccccc12 [4c] | 106.26% | 102.38% | 99.27% | 107.41% | 103.02% | 98.53% | 101.97% | 98.46% | 96.15% | 98.85% | 100.54% | 97.38% | 108.08% | 99.01% | 101.34% | 107.09% | 100.13% | 100.65% | 106.55% | 97.80% | Growth % (RPMI-8226): 102.27%; Growth % (OVCAR-4): 106.75%; Growth % (UACC-62): 89.22%; Growth % (A549/ATCC): 100.29%; Growth % (ACHN): 101.81%; Growth % (UACC-257): 108.88%; Growth % (BT-549): 113.43%; Growth % (RXF 393): 114.27%; Growth % (TK-10): 138.81%; Growth % (SK-MEL-5): 99.39%; Growth % (NCI-H23): 89.48%; Growth % (HCT-15): 98.27%; Growth % (CAKI-1): 87.84%; Growth % (SK-MEL-2): 103.64%; Growth % (KM12): 102.73%; Growth % (K-562): 97.57%; Growth % (CCRF-CEM): 101.97%; Growth % (NCI-H460): 106.15%
N#Cc1c(-c2ccc(F)cc2)cc(-c2c[nH]c3ccccc23)nc1-c1c[nH]c2ccccc12 [4d] | 104.67% | 99.50% | 94.85% | 110.19% | 106.25% | 103.38% | 100.20% | 89.11% | 94.04% | 100.06% | 89.92% | 89.44% | 106.26% | 93.44% | 102.08% | 102.48% | 103.05% | 95.18% | 106.63% | 102.47% | Growth % (RPMI-8226): 100.93%; Growth % (OVCAR-4): 101.04%; Growth % (UACC-62): 98.33%; Growth % (A549/ATCC): 101.42%; Growth % (ACHN): 101.89%; Growth % (UACC-257): 107.07%; Growth % (BT-549): 108.84%; Growth % (RXF 393): 111.59%; Growth % (TK-10): 127.59%; Growth % (SK-MEL-5): 100.33%; Growth % (NCI-H23): 100.43%; Growth % (HCT-15): 99.59%; Growth % (CAKI-1): 92.51%; Growth % (SK-MEL-2): 96.13%; Growth % (KM12): 100.66%; Growth % (K-562): 104.54%; Growth % (CCRF-CEM): 102.09%; Growth % (NCI-H460): 104.14%
COc1ccc(-c2cc(-c3c[nH]c4ccccc34)nc(-c3c[nH]c4ccccc34)c2C#N)cc1 [4e] | 106.07% | 102.90% | 102.14% | 105.49% | 108.08% | 108.38% | 98.49% | 89.59% | 92.14% | 93.61% | 86.61% | 108.69% | 108.02% | 82.07% | 102.42% | 96.29% | 89.91% | 100.69% | 113.43% | 102.65% | Growth % (RPMI-8226): 104.41%; Growth % (OVCAR-4): 106.10%; Growth % (UACC-62): 95.53%; Growth % (A549/ATCC): 99.97%; Growth % (ACHN): 95.12%; Growth % (UACC-257): 107.78%; Growth % (BT-549): 97.48%; Growth % (RXF 393): 94.44%; Growth % (TK-10): 141.73%; Growth % (SK-MEL-5): 97.12%; Growth % (NCI-H23): 103.56%; Growth % (HCT-15): 89.77%; Growth % (CAKI-1): 84.47%; Growth % (SK-MEL-2): 100.09%; Growth % (KM12): 96.65%; Growth % (K-562): 96.99%; Growth % (CCRF-CEM): 101.65%; Growth % (NCI-H460): 107.18%
